Activity calls are given as the source filed them. The calls are words filed in the database; no cut-off is given here.
Legend:
[1] = molecular target: POU domain, class 5, transcription factor 1 (Homo sapiens) (UniProt Q01860); experiment: Activation of human Oct3/4 in HEK293 cells transfected with firefly luciferase gene assessed as relative luciferase activity after 72 hrs by luminometer plate reader relative to DMSO control; type: cell-based
[2] = molecular target: POU domain, class 5, transcription factor 1 (Homo sapiens) (UniProt Q01860); experiment: Activation of human Oct3/4 in NCCIT cells transfected with firefly luciferase gene assessed as relative luciferase activity after 72 hrs by luminometer plate reader relative to DMSO control; type: cell-based
Fibroblast [3] = experiment: Induction of human Oct3/4 protein expression in human adult primary fibroblasts assessed as increase in protein expression at 10 uM after 72 hrs by immunoblotting analysis relative to control; type: functional, cell-based
[4] = molecular target: POU domain, class 5, transcription factor 1 (Homo sapiens) (UniProt Q01860); experiment: Activation of human Oct3/4 in HEK293 cells transfected with firefly luciferase gene assessed as relative luciferase activity at 5 uM after 72 hrs by luminometer plate reader relative to DMSO control; type: cell-based
HEK293 [5] = experiment: Induction of human Oct3/4 protein expression in HEK293 cells assessed as increase in protein expression at 10 uM after 96 hrs by immunoblotting analysis relative to DMSO control; type: functional, cell-based
HEK293 [6] = experiment: Induction of human Sox2 protein expression in HEK293 cells assessed as increase in protein expression at 10 uM after 96 hrs by immunoblotting analysis relative to DMSO control; type: functional, cell-based
HEK293 [7] = experiment: Induction of human Oct3/4 expression in HEK293 cells transfected with firefly luciferase gene assessed as increase in mRNA level at 20 uM after 72 hrs by qRT-PCT analysis; type: functional
HEK293 [8] = experiment: Induction of human Sox2 protein expression in HEK293 cells assessed as increase in protein expression at 10 uM after 24 hrs by immunoblotting analysis relative to DMSO control; type: functional, cell-based
HEK293 [9] = experiment: Induction of human Oct3/4 protein expression in HEK293 cells assessed as increase in protein expression after 48 hrs by immunoblotting analysis relative to DMSO control; type: functional, cell-based
HEK293 [10] = experiment: Induction of human Oct3/4 expression in HEK293 cells transfected with firefly luciferase gene assessed as increase in mRNA level at 10 uM after 72 hrs by qRT-PCT analysis; type: functional
[11] = molecular target: POU domain, class 5, transcription factor 1 (Homo sapiens) (UniProt Q01860); experiment: Activation of human Oct3/4 in HEK293 cells transfected with firefly luciferase gene assessed as relative luciferase activity after 48 to 72 hrs by luminometer plate reader relative to DMSO control; type: cell-based
[12] = molecular target: POU domain, class 5, transcription factor 1 (Homo sapiens) (UniProt Q01860); experiment: Activation of human Oct3/4 in HEK293 cells transfected with firefly luciferase gene assessed as relative luciferase activity at 5 uM by luminometer plate reader relative to DMSO control; type: cell-based; conditions: TDE = time-dependent effect
[13] = molecular target: Homeobox protein NANOG (Homo sapiens) (UniProt Q9H9S0); experiment: Activation of human Nanog in NCCIT cells transfected with firefly luciferase gene assessed as relative luciferase activity up to 72 hrs by luminometer plate reader relative to DMSO control; type: cell-based
Chain of Homeobox protein NANOG (Homo sapiens) (Q9H9S0 whole entry): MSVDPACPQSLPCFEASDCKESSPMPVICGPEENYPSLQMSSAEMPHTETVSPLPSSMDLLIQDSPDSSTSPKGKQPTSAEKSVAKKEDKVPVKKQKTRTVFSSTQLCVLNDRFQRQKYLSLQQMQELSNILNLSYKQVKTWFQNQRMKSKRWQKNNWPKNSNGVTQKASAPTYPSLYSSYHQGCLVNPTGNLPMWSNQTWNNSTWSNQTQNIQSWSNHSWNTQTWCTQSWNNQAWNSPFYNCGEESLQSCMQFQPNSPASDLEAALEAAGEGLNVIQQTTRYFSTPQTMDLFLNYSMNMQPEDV

HEK293 [14] = experiment: Induction of human Sox2 protein expression in HEK293 cells assessed as increase in protein expression at 10 uM after 48 hrs by immunoblotting analysis relative to DMSO control; type: functional, cell-based
HEK293 [15] = experiment: Induction of human Sox2 protein expression in HEK293 cells assessed as increase in protein expression at 0.5 to 20 uM after 48 hrs by immunoblotting analysis relative to DMSO control; type: functional, cell-based
[16] = molecular target: POU domain, class 5, transcription factor 1 (Homo sapiens) (UniProt Q01860); experiment: Activation of human Oct3/4 in HEK293 cells transfected with firefly luciferase gene assessed as luciferase signal by luminometer plate reader relative to DMSO control; type: cell-based
HEK293 [17] = experiment: Induction of human Oct3/4 protein expression in HEK293 cells assessed as increase in protein expression at 10 uM after 24 hrs by immunoblotting analysis relative to DMSO control; type: functional, cell-based
[18] = molecular target: POU domain, class 5, transcription factor 1 (Homo sapiens) (UniProt Q01860); experiment: Activation of human Oct3/4 in HEK293 cells transfected with firefly luciferase gene assessed as relative luciferase activity at 5 uM after 48 hrs by luminometer plate reader relative to DMSO control; type: cell-based
HEK293 [19] = experiment: Induction of human Nanog protein expression in HEK293 cells assessed as increase in protein expression at 0.5 to 20 uM after 48 hrs by immunoblotting analysis relative to DMSO control; type: functional, cell-based
HFF = experiment: Induction of human Oct3/4 protein expression in human neonatal foreskin fibroblasts assessed as increase in protein expression at 10 uM after 72 hrs by immunoblotting analysis relative to control; type: functional, cell-based
HEK293 [20] = experiment: Induction of human Oct3/4 protein expression in HEK293 cells assessed as increase in protein expression at 10 uM after 48 hrs by immunoblotting analysis relative to DMSO control; type: functional, cell-based
HEK293 [21] = experiment: Induction of human Oct3/4 protein expression in HEK293 cells assessed as increase in protein expression at 6 uM after 48 hrs by immunoblotting analysis relative to DMSO control; type: functional, cell-based
Fibroblast [22] = experiment: Induction of cell cycle arrest in human adult primary fibroblasts assessed as accumulation of cells at G1 phase at 20 uM after 5 days by propidium iodide staining assay (reference value: 74%); type: functional
Fibroblast [23] = experiment: Induction of human Sox2 protein expression in human adult primary fibroblasts assessed as increase in protein expression at 20 uM after 72 hrs by immunoblotting analysis relative to control; type: functional, cell-based
Fibroblast [24] = experiment: Induction of human Oct3/4 gene expression in human adult primary fibroblasts assessed as increase in mRNA level at 20 uM after 48 hrs by qRT-PCR analysis relative to control; type: functional
[25] = molecular target: POU domain, class 5, transcription factor 1 (Homo sapiens) (UniProt Q01860); experiment: Activation of human Oct3/4 in human adult primary fibroblasts at 20 uM by immunoblotting analysis relative to control; conditions: TDE = time-dependent effect
HeLa [26] = experiment: Induction of Oct3/4 accumulation in human HeLa cells at 10 uM after 48 hrs by immunolotting analysis; type: functional, cell-based
NCCIT [27] = experiment: Induction of Nanog accumulation in human NCCIT cells at 10 uM after 48 hrs by immunolotting analysis; type: functional, cell-based
Fibroblast [28] = experiment: Induction of human Sox2 protein expression in human adult primary fibroblasts assessed as increase in protein level at 20 uM after 5 days by Hoechst 33258 staining based immunostaining relative to control; type: functional, cell-based
Fibroblast [29] = experiment: Induction of human Nanog protein expression in human adult primary fibroblasts assessed as increase in protein level at 20 uM after 5 days by Hoechst 33258 staining based immunostaining relative to control; type: functional, cell-based
HeLa [30] = experiment: Induction of Nanog accumulation in human HeLa cells at 10 uM after 48 hrs by immunolotting analysis; type: functional, cell-based
Fibroblast [31] = experiment: Induction of human Oct3/4 protein expression in human adult primary fibroblasts assessed as increase in protein level at 20 uM after 5 days by Hoechst 33258 staining based immunostaining relative to control; type: functional, cell-based
Fibroblast [32] = experiment: Induction of human Klf4 gene expression in human adult primary fibroblasts assessed as increase in mRNA level at 20 uM after 48 hrs by qRT-PCR analysis relative to control; type: functional
Fibroblast [33] = experiment: Induction of human E-Cadherin level in human adult primary fibroblasts assessed as increase in protein level at 20 uM after 72 hrs by FACS analysis relative to control; type: functional, cell-based
Fibroblast [34] = experiment: Induction of human Sox2 protein expression in human adult primary fibroblasts assessed as positive cells normalized to total number of cells; type: functional
Fibroblast [35] = experiment: Induction of human Rex1 gene expression in human adult primary fibroblasts assessed as increase in mRNA level at 20 uM after 48 hrs by qRT-PCR analysis relative to control; type: functional
Fibroblast [36] = experiment: Induction of human Nanog protein expression in human adult primary fibroblasts assessed as increase in protein expression at 20 uM after 72 hrs by immunoblotting analysis relative to control; type: functional, cell-based
Fibroblast [37] = experiment: Induction of human c-Myc gene expression in human adult primary fibroblasts assessed as increase in mRNA level at 20 uM after 48 hrs by qRT-PCR analysis relative to control; type: functional
NCCIT [38] = experiment: Induction of Oct3/4 accumulation in human NCCIT cells at 10 uM after 48 hrs by immunolotting analysis; type: functional, cell-based
Fibroblast [39] = experiment: Induction of human Oct3/4 protein expression in human adult primary fibroblasts assessed as positive cells normalized to total number of cells; type: functional
Fibroblast [40] = experiment: Induction of human Lin28 protein expression in human adult primary fibroblasts assessed as increase in protein expression at 20 uM after 72 hrs by immunoblotting analysis relative to control; type: functional, cell-based
Fibroblast [41] = experiment: Induction of human Oct3/4 protein expression in human adult primary fibroblasts assessed as increase in protein expression at 20 uM after 72 hrs by immunoblotting analysis relative to control; type: functional, cell-based
Fibroblast [42] = experiment: Induction of human Nanog gene expression in human adult primary fibroblasts assessed as increase in mRNA level at 20 uM after 48 hrs by qRT-PCR analysis relative to control; type: functional
Fibroblast [43] = experiment: Induction of cell cycle arrest in human adult primary fibroblasts assessed as accumulation of cells at S phase at 20 uM after 5 days by propidium iodide staining assay (reference value: 2%); type: functional
Fibroblast [44] = experiment: Induction of human Oct3/4 and Sox2 protein expression in human adult primary fibroblasts assessed as positive cells normalized to total number of cells; type: functional, cell-based
Fibroblast [45] = experiment: Induction of human KLF4 protein expression in human adult primary fibroblasts assessed as increase in protein level at 20 uM after 5 days by Hoechst 33258 staining based immunostaining relative to control; type: functional, cell-based

Chain of POU domain, class 5, transcription factor 1 (Homo sapiens) (Q01860 whole entry, the tested form may be a part): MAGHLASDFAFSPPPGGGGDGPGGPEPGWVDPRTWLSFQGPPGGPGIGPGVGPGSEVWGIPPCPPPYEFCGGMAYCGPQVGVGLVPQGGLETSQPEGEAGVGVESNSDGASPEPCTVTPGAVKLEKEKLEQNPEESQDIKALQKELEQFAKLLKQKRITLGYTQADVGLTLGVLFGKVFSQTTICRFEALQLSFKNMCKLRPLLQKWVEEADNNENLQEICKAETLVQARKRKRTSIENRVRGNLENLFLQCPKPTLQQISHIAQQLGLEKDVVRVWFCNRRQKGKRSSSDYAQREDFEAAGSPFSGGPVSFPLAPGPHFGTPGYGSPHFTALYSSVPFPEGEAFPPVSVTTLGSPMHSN

Structure (SMILES): N#Cc1ccc(OCc2ccc(OC(F)(F)F)cc2)cc1
- RLU [1]: 3.4
- RLU [2]: 1.5

Structure (SMILES): COc1ccc(COc2ccc(CC#N)cc2)cc1
- Activity (Fibroblast [3]): Active
- fold change (FC) [4]: 3
- RLU [1]: 3.85
- Activity (HEK293 [5]): Active
- Activity (HEK293 [6]): Active
- fold change (FC) (HEK293 [7]): 4
- RLU [2]: 2.68
- Activity (HEK293 [8]): Active
- Activity (HEK293 [9]): Dose-dependent effect
- fold change (FC) (HEK293 [10]): 2.5
- Activity [11]: Dose-dependent effect
- Activity [12]: tde
- Activity [13]: Active
- Activity (HEK293 [14]): Active
- Activity (HEK293 [15]): Active
- fold change (FC) [16]: 5
- Activity (HEK293 [17]): Active
- fold change (FC) [18]: 2
- Activity (HEK293 [19]): Active
- Activity (HFF): Active
- Activity (HEK293 [20]): Active
- Activity (HEK293 [21]): Active

Structure (SMILES): N#CCc1ccc(OCc2ccc(-c3ccccc3)cc2)cc1
- RLU [1]: 0.84
- RLU [2]: 0.73

Structure (SMILES): N#Cc1ccc(OCc2ccc(F)cc2)cc1
- RLU [1]: 5.83
- RLU [2]: 2.26

Structure (SMILES): Cc1ccc(COc2ccc(CC#N)cc2)cc1
- RLU [1]: 2
- RLU [2]: 2.26

Structure (SMILES): N#CCc1ccc(OCc2ccc(OC(F)(F)F)cc2)cc1
- RLU [1]: 4.9
- RLU [2]: 2.14

Structure (SMILES): N#Cc1ccc(OCc2ccc([N+](=O)[O-])cc2)cc1
- RLU [1]: 2.65
- RLU [2]: 1.08

Structure (SMILES): N#CCc1ccc(OCc2ccc(F)cc2)cc1
- Activity (Fibroblast [22]): 66%
- RLU [1]: 6.58
- Activity (Fibroblast [23]): Active
- fold change (FC) (Fibroblast [24]): 7
- Activity [25]: tde
- Activity (HeLa [26]): Active
- RLU [2]: 4.02
- Activity (NCCIT [27]): Active
- Activity [13]: Active
- Activity (Fibroblast [28]): Active
- Activity (Fibroblast [29]): Active
- Activity (HeLa [30]): Active
- Activity (Fibroblast [31]): Active
- fold change (FC) (Fibroblast [32]): 6
- Activity (Fibroblast [33]): Active
- Activity (Fibroblast [34]): 9%
- fold change (FC) (Fibroblast [35]): 1.3
- Activity (Fibroblast [36]): Active
- fold change (FC) (Fibroblast [37]): 2
- Activity (NCCIT [38]): Active
- Activity (Fibroblast [39]): 6%
- Activity (Fibroblast [40]): Active
- Activity (Fibroblast [41]): Active
- fold change (FC) (Fibroblast [42]): 12
- Activity (Fibroblast [43]): 7%
- Activity (Fibroblast [44]): Active
- Activity (Fibroblast [45]): Active

Structure (SMILES): COc1ccc(COc2ccc(C#N)cc2)cc1
- RLU [1]: 3
- RLU [2]: 0.99

Structure (SMILES): N#CCc1ccc(OCc2ccc([N+](=O)[O-])cc2)cc1
- RLU [1]: 4.02
- RLU [2]: 2.61

Structure (SMILES): N#CCc1ccc(OCc2ccc(C#N)cc2)cc1
- RLU [1]: 1.79
- RLU [2]: 1.88
